Laboratory results from US20230014430A1, “Methods and Compositions for Generating Functionally Mature Beta Cells and Uses Thereof” (Washington University, priority 2019, published 2023).

B1: TGFβ2: TGFβ agonist (growth factor) (protein, UniProt P61812 303-414, looked up)
Transforming growth factor …: ALDAAYCFRNVQDNCCLRPLYIDFKRDLGWKWIHEPKGYNANFCAGACPYLWSSDTQHSRVLSLYNTINPEASASPCCVSQDLEPLTILYYIGKTPKIEQLSNMIVKSCKCS

Tests used:
Format in all cases: cell-based, human
SIX2 gene expression = test: SC-β cells treated with a library of compounds to identify SIX2 regulators; conditions: FIG. 11
Description: FIG. 11. Regulators of SIX2. SC-β cells were treated with a library of compound to identify SIX2 regulators. […] (B) Negative Regulators of SIX2 gene expression. (C) Flow cytometry of SC-β cells treated with SIX2 regulators.
Here, regulators of SIX2 gene expression were discovered (see e.g., FIG. 11). It was discovered that (1) regulators of SIX2 affect the % of SC-β cells generated (see e.g., FIG. 12); (2) SIX2 regulators influence SC-β cell function (see e.g., FIG. 13); (3) SIX2 is expressed by only a fraction of C-peptide positive cells (SC-β cells) (see e.g., FIG. 12A, FIG. 2B); and (4) SIX2+ cells secrete insulin in response to glucose when single cell dispersed and plated down (see e.g., FIG. 14).

SC-β cells [1] = test: Static glucose-stimulated insulin secretion of stage 6 cells; conditions: HUES8 hESC and 1013-4FA hiPSC lines, vs sh-ctrl
Description: (§1) Gene KD was performed similar to as previously described (Velazco-Cruz et al., 2019). pLKO.1 TRC plasmids containing shRNA sequences targeting GFP (sh-ctrl) and human SIX2 (sh-SIX2-1 and sh-SIX2-2) were received from the RNAi Core at the Washington University. sh-ctrl, […] (SEQ ID NO: 35); sh-SIX2-1, […] (SEQ ID NO: 36); sh-SIX2-2, […] (SEQ ID NO: 37). Viral particles were generated using Lenti-X 293T cells (Takara; 632180) cultured in DMEM (MilliporeSigma; D6429) with 10% heat inactivated fetal bovine serum (MilliporeSigma; F4135). Confluent Lenti-X 293T cells were transfected with […] of shRNA plasmid, […] of psPAX2 (Addgene; 12260), and 1.5 μg pMD2.G (Addgene; 12259) packaging plasmids in 600 μL of Opti-MEM (Life Technologies; 31985-070) and 48 μL of Polyethylenimine ‘Max’ MW 40,000 Da (Polysciences; 24765-2). 16 hours post transfection media was switched. Viral containing supernatant was collected at 96 hours post transfection and concentrated using Lenti-X concentrator (Takara; 631232). Collected lentivirus was tittered using Lenti-X qRT-PCR Titration Kit (Takara; 631235). […]
Measurements were performed as previously described (Velazco-Cruz et al., 2019). […] Insulin was quantified with a human insulin ELISA (ALPCO; 80-INSHU-E10.1). Cell quantification was performed by dispersing with trypLE and counting with the Vi-Cell XR.

SC-β cells [2] = test: Dynamic glucose-stimulated insulin secretion of stage 6 cells (perifusion); conditions: HUES8 hESC and 1013-4FA hiPSC lines, vs sh-ctrl
Description: as §1
Measurements were performed as previously described (Velazco-Cruz et al., 2019). […] Insulin was quantified with a human insulin ELISA (ALPCO; 80-INSHU-E10.1). DNA quantification was performed by lysing the cells and measuring with the Quant-iT Picogreen dsDNA assay kit (Invitrogen; P7589). […]

Molecule | regulation of SIX2 expression in SC-β cells (SIX2 gene expression) | static glucose-stimulated insulin secretion (SC-β cells [1]) | dynamic glucose-stimulated insulin secretion (SC-β cells [2])
Cc1c[nH]c(-c2cnc(NCCNc3ccc(C#N)cn3)nc2-c2ccc(Cl)cc2Cl)n1 [CHIR99021] | positive regulator | – | –
sh-SIX2-2: lentiviral pLKO.1 TRC shRNA targeting human SIX2, GAGCACCTTCACAAGAATGAA (SEQ ID NO: 37) | – | significant reductions | significant reductions
Nc1ncn([C@@H]2O[C@H](CO)[C@@H](O)[C@H]2O)c(=O)n1 [5-Azacytidine] | positive regulator | – | –
sh-SIX2-1: lentiviral pLKO.1 TRC shRNA targeting human SIX2, CAACGAGAACTCCAATTCTAA (SEQ ID NO: 36) | – | significant reductions | significant reductions
Nc1nccc2c1ncn2[C@@H]1C=C(CO)[C@@H](O)[C@H]1O [3-Deazaneplanocin A] | positive regulator | – | –
TGFβ1: TGFβ agonist (growth factor) | positive regulators | – | –
AZD4547 | positive regulators | – | –
Cc1ccc(-n2nc(C(C)(C)C)cc2NC(=O)Nc2ccc(OCCN3CCOCC3)c3ccccc23)cc1 [doramapimod] | positive regulators | – | –
B1 | positive regulators | – | –
